Series [1] concerns CNV. Particulars: in vivo; cited from earlier work.
Series [2] deals with corneal neovascularization. In words: Alkali burn (sodium hydroxide caustication) neovascularization model. The format is in vivo, C57Bl/6 mice. Particulars: for corneal perforation / corneal transparency / incidence of symblepharon and ankyloblepharon / lid anatomy: topical treatment of ocular burns, Examples 4-6. The method, then:
Prior to pellet implantation or caustication, animals were anesthetized by intraperitoneal injection of ketamine (120 mg/kg) and xylazine (20 mg/kg) before any surgery.
In fact, the Alkali burn model is considered an inflammation-driven model of neovascularisation, whereby a reduction in inflammatory cell influx is associated with clinical improvement.
Mice were anesthetized by intraperitoneal injection of ketamine (120 mg/kg) and xylazine (20 mg/kg) before any surgery. A 2-mm disc of filter paper saturated with 1 N NaOH was placed onto the right cornea of each mouse for 40 seconds, followed by rinsing extensively with phosphate-buffered saline (PBS) for 2 minutes.
(§1) After taking photographs under the slit lamp, five mice per group were sacrificed 7 days after b-FGF micropellet implantation or caustication, and freshly enucleated eyes were prepared into corneal flat mounts. Immunohistochemical staining was performed with FITC-conjugated CD31/PECAM-1 (rat-anti-mouse antibody; 1:100; Santa Cruz Biotechnology, Santa Cruz, Calif.). Images were taken at 40×, 400× and 600× magnification. To quantify the blood vessels, corneal whole-mounts were covered with mounting medium (Vector, Burlingame, Calif.) and examined by an epifluorescent microscope. For toxicity studies, mice were examined at the slit lamp daily. Animals were sacrificed seven days later and eye bulbs were removed, fixed in 4% paraformaldehyde, cross-sectioned and stained with standard hematoxylin-eosin. At least three to five different corneas were examined; representative data are presented.
(§2) Both slit-lamp and fluorescence microscopy pictures were qualitatively compared for the amount of corneal neovascularization. Gross anatomical alterations such as disruption of epithelial layer, inflammatory cell infiltration, or endothelial cell loss were searched in hematoxylin-eosin cross sections.
Male 6- to 8-week-old C57Bl/6 mice were treated to induce neovascularization using sodium hydroxide caustication (see Experimental Methods)
5 mice per group were used. After taking photographs at the slit lamp, mice were sacrificed. Immunohistochemical staining was performed with FITC-conjugated CD31/PECAM-1 to reveal corneal neovessels.
Lanepitant (WO9907681) was dissolved in PBS. It was administered topically to the eye with the following dose regimen after alkali burn induced neovascularization of the cornea: • 0.4 mg/ml, 6 times a day for 4 days, starting on the day of the tissue injury (“Day 0” to “Day 3”). • 1.6 mg/ml, 6 times a day for 4 days, starting on the day of the tissue injury (“Day 0” to “Day 3”). • 6.4 mg/ml, 6 times a day for 4 days, starting on the day of the tissue injury (“Day 0” to “Day 3”). • PBS Control, 6 times a day for 4 days, starting on the day of the tissue injury (“Day 0” to “Day 3”).
Three mice (for a total of 6 eyes) were treated in each experimental group.
On Day 4, After taking photographs at the slit lamp, mice were sacrificed. Immunohistochemical staining was performed with FITC-conjugated CD31/PECAM-1 to reveal corneal neovessels (FIG. 4A). Following alkali burn, neovessels are expected to grow from the periphery towards the center of the cornea. The extent of the neovascularization is then evaluated. Briefly, corneas were excised, fixed and stained with FITC-conjugated CD31/PECAM-1 to reveal corneal neovessels. […] The neovascular area was then calculated by measuring the Neovascular Area Index (NV Index). This was obtained by calculating the ratio of the neovascular area—obtained by joining together the inner tip of the neovessels—and the total surface of the cornea (i.e. the total area of the cornea).
Befetupitant (WO020008232) was dissolved in DMSO (Dimethyl SulfOxyde).

In series [3] the test system is corneal neovascularization. The description is as above. The format is in vivo, C57Bl/6 mice.
Series [4] has as its system corneal neovascularization. In words: b-FGF pellet implantation angiogenesis model (mouse corneal micropocket). The format is in vivo, C57Bl/6 mice. As to conditions: 1 mg/ml topical, 4 times per day for 1 week. As for the experimental part: Male 6- to 8-week-old C57Bl/6 mice (Taconic Farms, Germantown, N.Y.) were used in experiments for Examples 1 to 3. Male 6- to 8-week-old C57Bl/6 mice (Charles River Lab, Calco, Milan, Italy) were used in experiments for Examples 4-6. Prior to pellet implantation or caustication, animals were anesthetized by intraperitoneal injection of ketamine (120 mg/kg) and xylazine (20 mg/kg) before any surgery.
b-FGF Pellet Implantation Angiogenesis Model
This model was employed to assess the effect of pharmaceutically active substances on the angiogenesis component of CNV.
Sustained release b-FGF micropellets (40 ng/pellet) were prepared as described in Azar D T, Am Ophthalmol Soc 2006; 104:264-302.
Briefly, the pellets were implanted through half thickness linear incisions at the center of cornea using a disposable 30 degrees microknife (F.S.T., Foster City, Calif., USA). Lamellar pocket incisions were then made parallel to the corneal plane using a Von Graefe knife (F.S.T., Foster City, Calif., USA) and advanced to the temporal limbus at lateral canthal area. The pellets were positioned into the pocket 1.0 mm apart from the limbal vascular arcade in temporal side, and tetracycline ophthalmic ointment was applied to the eye after pellet implantation to prevent post surgical infections.
as §1
Both slit-lamp and fluorescence microscopy pictures were qualitatively compared for the amount of corneal neovascularization. Gross anatomical alterations such as disruption of epithelial layer, inflammatory cell infiltration, or endothelial cell loss were searched in hematoxylin-eosin cross sections. […]
Following b-FGF pellet implantation, neovessels are expected to grow from the limbal vessels (i.e. from the periphery of the cornea), towards the pellet, which is placed in the avascular cornea. The extent of neovascularisation is then evaluated.

Another series concerns healthy cornea. Kind of series: Toxicity following topical application in healthy eyes. The format is in vivo, C57Bl/6 mice. The method, then:
as §1, §2
Fosaprepitant toxicity was tested on the healthy cornea by administering to 3 healthy C57Bl/6 mice fosaprepitant (purchased from Universal Drug Store, Canada and diluted as per technical sheet instructions with 0.9% NaCl solution to reach a final concentration of 1 mg/ml) at the concentration of 1 mg/ml in the conjunctival sac 4 times per day for 1 week. In vivo corneal biomicroscopy imaging and hematoxylin eosin ocular cross sections were checked as markers for toxicity.

For series [5], the system named is growth of capillary vessels. Particulars: slow release pellets in avascular cornea of rabbits; cited from earlier work.
The next series concerns endothelial cells. As to conditions: in vitro; cited from earlier work.
Series [6] deals with CNV. Particulars: humans, topical administration; cited from earlier work.
[7] abbreviates: 1 mg/ml topical, 4 times per day for 1 week, versus placebo.
The mark [8] stands for this setting: increasing dose 0.4, 1.6, 6.4 mg/ml topical, 6 times a day for 4 days, Day 4.

These results are taken from patent US9782397B2, “Treatment of corneal neovascularization” (IRBM SCIENCE PARK S.P.A., priority 2011, dated 2017).

“Also recorded” adds a separate entry of the source. Ends that are not written are not given here.

Take `CC(=O)OCC(=O)[C@@]1(O)CC[C@H]2[C@@H]3CCC4=CC(=O)CC[C@]4(C)C3=CC[C@@]21C` [anecortave acetate]: the “efficacy in animal models of CNV” value with CNV [1] is “effective”.

As to `Cc1ccccc1-c1cc(N2CCOCC2)ncc1N(C)C(=O)C(C)(C)c1cc(C(F)(F)F)cc(C(F)(F)F)c1` [befetupitant], the “Corneal Neovascular Index” value in series [2] (0.4 mg/ml topical, 3 times a day for 9 days, compared to vehicle (DMSO)) was “statistically significant reduction”. In addition, in series [2], the corneal perforation result is “reduced”; the corneal transparency result is reported as “increased”; the “incidence of symblepharon and ankyloblepharon” value is on record as “reduced”; the lid anatomy entry is recorded as “appeared better preserved”. Besides, the “Corneal Neovascular Index” value in series [3] (1.6 mg/ml topical, 3 times a day for 9 days, compared to vehicle (DMSO)) is listed as “statistically significant reduction”. In addition, the “corneal neovessels (CD31/PECAM-1)” value in series [3] (increasing doses 0.4, 1.6 mg/ml in DMSO, topical, 3 times a day for 9 days, day 9) was “reduced; also recorded: reduces corneal neovascularization”.

Take `C[C@@H](O[C@H]1OCCN(Cc2nc(O)n(P(=O)(O)O)n2)[C@H]1c1ccc(F)cc1)c1cc(C(F)(F)F)cc(C(F)(F)F)c1` [fosaprepitant, [3-{[(2R,3S)-2-[(1R)-1-[3,5-bis(trifluoromethyl)phenyl]ethoxy]-3-(4-fluorophenyl)morpholin-4-yl]methyl}-5-oxo-2H-1,2,4-triazol-1-yl]phosphonic acid]: in series [4] (slit lamp, 7 days after implantation), the “length of the vessels” value is “appeared reduced”. Also, the “area of normally avascular cornea invaded by neovessels” value in series [4] (versus placebo) and in series [2] (setting [7]) was “smaller” each time. The “density of vascular ramifications (number of vascular branches per surface unit)” value in series [4] (versus placebo) and in series [3] (setting [7]) was “reduced” each time. Further, in series [4] (conjunctival sac, 7 days after implantation, versus placebo (PBS)), the “corneal neovascularization (slit lamp, CD31/PECAM-1 whole mounts)” value is “less neovascularization; also recorded: reduces corneal neovascularization”. The “alteration of corneal epithelium, stroma or endothelium at slit lamp observation” value with healthy cornea (1 mg/ml topical, 4 times per day, up to 7 days, healthy corneas) is “No alteration”. The “hematoxylin-eosin staining of eyeball cross-sections (epithelium, stroma, endothelium)” value in the series with healthy cornea (1 mg/ml topical, 4 times per day, 7 days) is listed as “no anatomical alteration was detected”. Also, the “toxicity to the cornea” value with healthy cornea (topical application (FIG. 3)) was “not toxic”. The “corneal neovascularization (slit lamp, epifluorescent microscopy)” value in series [3] (1 mg/ml topical, 4 times per day for 1 week, 7 days after caustication, versus placebo (PBS)) is “remarkably reduced; also recorded: reduces corneal neovascularization”. Moreover, the corneal transparency entry in series [3] (1 mg/ml topical, 4 times per day for 1 week, versus placebo-treated corneas) was “much improved”.

As for `COc1ccccc1CN(C[C@@H](Cc1c[nH]c2ccccc12)NC(=O)CN1CCC(N2CCCCC2)CC1)C(C)=O` [lanepitant], in series [2] (6.4 mg/ml topical, 6 times a day for 4 days, compared to vehicle), the “Neovascular Area Index (NV Index)” value is recorded as “statistically significant reduction”. Besides, in series [2] (0.4, 1.6, 6.4 mg/ml topical, 6 times a day for 4 days, Day 4, versus vehicle), the “anatomy of the eyelids” value is listed as “appeared better preserved”. Also, the corneal transparence entry in series [2] (increasing dose 0.4, 1.6, 6.4 mg/ml topical, 6 times a day for 4 days from day of injury, Day 4, versus vehicle (PBS)) is on record as “increased corneal transparence”. Further, in series [2] (setting [8]), the “Neovascular Area Index (NV Index)” value is on record as “progressively reduced” and the “corneal neovessels (CD31/PECAM-1)” value is on record as “progressively reduced; also recorded: reduces corneal neovascularization”. For the same compound, in series [2] (pre-treatment 1.6 mg/ml versus 1.6 mg/ml started on day of injury), the “effect on neovascularization compared to the same dose administered after the tissue injury” value is “increased effect”. Further, in series [2], the corneal perforation result is “reduced”; the corneal transparency entry is listed as “increased”; the “incidence of symblepharon and ankyloblepharon” value is reported as “reduced”; the lid anatomy result is recorded as “appeared better preserved”. Also, the “Cornea Neovascular Index” value in series [3] (pre-treatment: 1.6 mg/ml topical, 6 times a day from before the injury through Day 3, day 4) is “statistically significant reduction”. The corneal neovascularization result in series [3] (pre-treatment: 1.6 mg/ml topical, 6 times a day from before the injury through Day 3, day 4, versus vehicle) is “appeared reduced; also recorded: reduces corneal neovascularization”.

As to “Substance P: C-amidated decapeptide of the tachykinin family; principal receptor NK-1 (RPKPQQFFGLM-NH2; UniProt P20366 58-68, looked up)”, in series [5], the “vessel growth in the cornea” value was “induced a marked neovascularization”. The “proliferation of endothelial cells” value with endothelial cells is reported as “increased proliferation”.

Regarding “bevacizumab: anti-VEGF monoclonal antibody”, in the series on CNV [6], the “inhibiting CNV” value is reported as “some effect”.
